Test [1] has as its system U266B1 multiple myeloma cells. Description: Multiple myeloma growth inhibition (CellTiter-Glo), U266B1. Conditions: 48 hours, FIG. 7. Format: cell-based. The method, then:
(§1) Cryogenically stored RPMI 8226 and U266B1 cells (ATCC, Manassas, Va.) were thawed and cultured according to the vendor's recommendations. Cells were plated in 96-well white-wall tissue culture plates at a concentration of 2×10^5 cells/ml (0.1 ml per well) and incubated overnight at 37° C. in a humidified 5% CO2 atmosphere. Compounds were added to each well at the indicated concentrations (0.5 μl of 200×DMSO stock) and incubated with the cells for 48 hours. Cell viability was detected by adding 100 μl CellTiter-Glo Reagent (Promega, Madison, Wis.) to each well, mixing with pipette, and incubating at room temperature for 10 minutes. Luminescence was read with a DTX 880 Multimode Detector (Beckman Coulter, Fullerton, Calif.). Data was analyzed with SigmaPlot 11 (Systat Software, San Jose, Calif.) software.

Test [2] concerns RPMI8226 multiple myeloma cells. In words: Multiple myeloma growth inhibition (CellTiter-Glo), RPMI 8226. Format: cell-based. Conditions: 48 hours, FIG. 6. On the procedure:
as §1

Consider `CN(C)c1ccc(C(=O)NC2=CC(=O)C3OC3C2O)c(O)c1` (racemic) [Example 10, (±)-4-(dimethylamino)-2-hydroxy-N-(2-hydroxy-5-oxo-7-oxabicyclo[4.1.0]hept-3-en-3-yl)benzamide], for which the “growth inhibition of U266B1 multiple myeloma cells” value in test [1] was “growth inhibition”. In addition, the “growth inhibition of RPMI8226 multiple myeloma cells” value in test [2] was “growth inhibition”.
